Measurements reported in the supplement of paper PMC5412046.
Counter-ions that a name gives are not always drawn.

Experiments:
SB.mhdgc-1 = assay: AC50 for growth inhibition (viability) (log10 M); higher = less potent; conditions: SB.mhdgc-1 (hereditary c.1380delA CDH1 gastric cancer)
In short: (§1)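 Dosing used a pintool to add 23 nL compound in DMSO to 1536 wells, each with 500 hereditary or sporadic patient-derived gastric cancer cells, across 11 threefold dilutions starting at a final 46 μM. Viability after 48 h was measured by CellTiter-Glo luminescence on a ViewLux. The log half-maximal activity concentration derives from a four-parameter fit of that viability normalised to DMSO, limited to high-quality curve classes.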

SB.msgc-1 = assay: as above; conditions: SB.msgc-1 (sporadic gastric cancer)
In short: as §1

Cc1ccc(C)c(OCCCC(C)(C)C(=O)O)c1 [Gemfibrozil]
AC50 for growth inhibition (log10 M) (SB.mhdgc-1): -4.78
AC50 for growth inhibition (log10 M) (SB.msgc-1): -5.13

OC[C@H]1O[C@@H]2[C@@H](OC\3=N\C(=N)\C=C/[N@@]23)[C@@H]1O [Cyclocytidine HCl]
AC50 for growth inhibition (log10 M) (SB.mhdgc-1): -6.13
AC50 for growth inhibition (log10 M) (SB.msgc-1): -5.43

CNC(=O)c1cc(Oc2ccc(NC(=O)Nc3ccc(Cl)c(C(F)(F)F)c3)c(F)c2)ccn1 [Regorafenib]
AC50 for growth inhibition (log10 M) (SB.mhdgc-1): -4.78
AC50 for growth inhibition (log10 M) (SB.msgc-1): -4.83

OC1=C(O)C2=C(\C=C/C(=O)O2)C=C1 [Daphnetin]
AC50 for growth inhibition (log10 M) (SB.mhdgc-1): -5.78
AC50 for growth inhibition (log10 M) (SB.msgc-1): -4.78

CC[C@@H]1/C=C(\C)C[C@H](C)C[C@H](OC)[C@H]2O[C@@](O)(C(=O)C(=O)N3CCCC[C@H]3C(=O)O[C@H](/C(C)=C/[C@@H]3CC[C@H](Cl)[C@H](OC)C3)[C@H](C)[C@@H](O)CC1=O)[C@H](C)C[C@@H]2OC [Pimecrolimus]
AC50 for growth inhibition (log10 M) (SB.mhdgc-1): -4.98
AC50 for growth inhibition (log10 M) (SB.msgc-1): -4.93

O=C1\C=C(OC2=C(C=CC=C12)C3=CC=CC4=C3SC5=C4C=CC=C5)\N6CCOCC6 [NU-7441]
AC50 for growth inhibition (log10 M) (SB.mhdgc-1): -4.68
AC50 for growth inhibition (log10 M) (SB.msgc-1): -4.78

OC[C@H]1O[C@H](C[C@@H]1O)N2\C=C(F)/C(=O)NC2=O [Floxuridine]
AC50 for growth inhibition (log10 M) (SB.mhdgc-1): -7.78
AC50 for growth inhibition (log10 M) (SB.msgc-1): -6.48

O=C1[O][Pt]2([NH]C3CCCCC3[NH]2)[O]C1=O (centres undefined) [Oxaliplatin]
AC50 for growth inhibition (log10 M) (SB.mhdgc-1): -4.73
AC50 for growth inhibition (log10 M) (SB.msgc-1): -5.58

CCCCC[C@H](O)/C=C/[C@H]1[C@H](O)CC(=O)[C@@H]1CCCCCCC(=O)O [Alprostadil]
AC50 for growth inhibition (log10 M) (SB.mhdgc-1): -5.13
AC50 for growth inhibition (log10 M) (SB.msgc-1): -4.68

CC1(C)CC(=O)c2c(C(F)(F)F)nn(-c3ccc(C(N)=O)c(NC4CCC(O)CC4)c3)c2C1 (centres undefined) [SNX-2112]
AC50 for growth inhibition (log10 M) (SB.mhdgc-1): -6.48
AC50 for growth inhibition (log10 M) (SB.msgc-1): -7.43

O=C1CSC(=O)N1C(CCc1ccncc1)COc1ccc(-c2cccc([N+](=O)[O-])c2)cc1 (centres undefined)
AC50 for growth inhibition (log10 M) (SB.mhdgc-1): -5.88
AC50 for growth inhibition (log10 M) (SB.msgc-1): -5.78

CC(O)(C#Cc1ccc2c(c1)N(c1nc(N)ncc1Cl)CC2)c1nccs1 (centres undefined)
AC50 for growth inhibition (log10 M) (SB.mhdgc-1): -4.73
AC50 for growth inhibition (log10 M) (SB.msgc-1): -4.88

CN(C)C(=O)c1ccc([S+](=O)([O-])c2ccc(NC(=O)[C@@](C)(O)C(F)(F)F)c(Cl)c2)cc1 [AZD-7545]
AC50 for growth inhibition (log10 M) (SB.mhdgc-1): -4.88
AC50 for growth inhibition (log10 M) (SB.msgc-1): -4.73

CN(C)Cc1c(C(=O)NCCOc2ccc(C(=O)NO)cc2)oc2ccccc12 [Abexinostat]
AC50 for growth inhibition (log10 M) (SB.mhdgc-1): -5.13
AC50 for growth inhibition (log10 M) (SB.msgc-1): -5.93

C[C@@]12OC(=O)[C@@]1(NC(=O)[C@@H]2CCCl)[C@@H](O)[C@H]\3CCC\C=C3 [Marizomib]
AC50 for growth inhibition (log10 M) (SB.mhdgc-1): -7.68
AC50 for growth inhibition (log10 M) (SB.msgc-1): -7.48

N=C(NCCCCCCNC(=N)NC(=N)Nc1ccc(Cl)cc1)NC(=N)Nc1ccc(Cl)cc1 [Chlorhexidine]
AC50 for growth inhibition (log10 M) (SB.mhdgc-1): -5.28
AC50 for growth inhibition (log10 M) (SB.msgc-1): -5.43

Nc1nc(Cl)nc2c1ncn2[C@H]1C[C@H](O)[C@@H](CO)O1 [Cladribine]
AC50 for growth inhibition (log10 M) (SB.mhdgc-1): -6.58
AC50 for growth inhibition (log10 M) (SB.msgc-1): -5.83

CC1(C)CCC(=C(\C1)C2=CC=C(Cl)C=C2)/CN3CCN(CC3)C4=CC(=C(C=C4)C(=O)N[S+]([O-])(=O)C5=CC=C(NCC6CCOCC6)C(=C5)[N+]([O-])=O)OC7=CN=C8[NH]C=CC8=C7 [ABT-199]
AC50 for growth inhibition (log10 M) (SB.mhdgc-1): -4.73
AC50 for growth inhibition (log10 M) (SB.msgc-1): -4.88

C=CCO/N=C(/C[C@H]1O[C@@H]2O[C@]3(C)CC[C@H]4[C@H](C)CC[C@@H]([C@H]1C)[C@@]24OO3)[C@H]1O[C@@H]2O[C@]3(C)CC[C@H]4[C@H](C)CC[C@@H]([C@H]1C)[C@@]24OO3 [BTM-2C-dimer allyl oxime]
AC50 for growth inhibition (log10 M) (SB.mhdgc-1): -6.88
AC50 for growth inhibition (log10 M) (SB.msgc-1): -6.58

CC(C)(O)c1cc2nc(-c3cnc(N)nc3)nc(N3CCOCC3)c2s1 [GNE-493]
AC50 for growth inhibition (log10 M) (SB.mhdgc-1): -6.98
AC50 for growth inhibition (log10 M) (SB.msgc-1): -6.88

CCC(CCCC)COC(=O)C(\C#N)=C(\c1ccccc1)c2ccccc2 (centres undefined) [Octocrylene]
AC50 for growth inhibition (log10 M) (SB.mhdgc-1): -4.88
AC50 for growth inhibition (log10 M) (SB.msgc-1): -4.88

CNC(=O)c1ccc(N2C(=S)N(c3cnc(C#N)c(C(F)(F)F)c3)C(=O)C23CCC3)cc1F [ARN-509]
AC50 for growth inhibition (log10 M) (SB.mhdgc-1): -6.53
AC50 for growth inhibition (log10 M) (SB.msgc-1): -6.08

COCCOc1nc(-c2ccc(Cl)c(Cl)c2)n(-c2ccc(NC(=O)CCl)cc2)n1 [MI-2]
AC50 for growth inhibition (log10 M) (SB.mhdgc-1): -4.73
AC50 for growth inhibition (log10 M) (SB.msgc-1): -5.08

CC[C@@H](C)[C@H](NC(=O)[C@H](CC1CCCCC1)NC(=O)c1ccno1)C(=O)N1CCC2(CCc3ccccc32)CC1 [GB 83]
AC50 for growth inhibition (log10 M) (SB.mhdgc-1): -4.88
AC50 for growth inhibition (log10 M) (SB.msgc-1): -4.98

CCOC(=O)\C1=C\[C@]2(CC)CCCN3CCC4=C([C@H]23)[N]1C5=C4C=CC=C5 [Vinpocetine]
AC50 for growth inhibition (log10 M) (SB.mhdgc-1): -4.93
AC50 for growth inhibition (log10 M) (SB.msgc-1): -4.63

OCCN1CCN(CCCN2c3ccccc3Sc3ccc(C(F)(F)F)cc32)CC1 [Fluphenazine hydrochloride]
AC50 for growth inhibition (log10 M) (SB.mhdgc-1): -4.83
AC50 for growth inhibition (log10 M) (SB.msgc-1): -4.78

Cc1cnc(NC(=O)Nc2cc(Br)c(C)cc2OC[C@@H]2CNCCO2)cn1 [Rabusertib]
AC50 for growth inhibition (log10 M) (SB.mhdgc-1): -4.88
AC50 for growth inhibition (log10 M) (SB.msgc-1): -5.88

O=[S+]([O-])(NCCNC/C=C/c1ccc(Br)cc1)c1cccc2cnccc12 [H-89]
AC50 for growth inhibition (log10 M) (SB.mhdgc-1): -4.88
AC50 for growth inhibition (log10 M) (SB.msgc-1): -4.73

CC(C)(F)C[C@H](N[C@@H](c1ccc(-c2ccc([S+](C)(=O)[O-])cc2)cc1)C(F)(F)F)C(=O)NC1(C#N)CC1 [Odanacatib]
AC50 for growth inhibition (log10 M) (SB.mhdgc-1): -5.38
AC50 for growth inhibition (log10 M) (SB.msgc-1): -4.88

CN1CCCC(CC1)N2\N=C(CC3=CC=C(Cl)C=C3)/C4=C(C=CC=C4)C2=O (centres undefined) [Azelastine hydrochloride]
AC50 for growth inhibition (log10 M) (SB.mhdgc-1): -6.08
AC50 for growth inhibition (log10 M) (SB.msgc-1): -6.03

CCc1nc(N)nc(N)c1-c1ccc(Cl)cc1 [Pyrimethamine]
AC50 for growth inhibition (log10 M) (SB.mhdgc-1): -5.38
AC50 for growth inhibition (log10 M) (SB.msgc-1): -5.48

ClC1=CC=C2N/C3=N/C(=O)CN3CC2=C1Cl [anagrelide]
AC50 for growth inhibition (log10 M) (SB.mhdgc-1): -4.73
AC50 for growth inhibition (log10 M) (SB.msgc-1): -4.78

Cc1c(C(=O)c2cccc3ccccc23)c2cccc3c2n1[C@H](CN1CCOCC1)CO3
AC50 for growth inhibition (log10 M) (SB.mhdgc-1): -4.93
AC50 for growth inhibition (log10 M) (SB.msgc-1): -5.08

NC1(Cc2ccc(Cl)cc2)CCN(c2ncnc3[nH]ccc23)CC1
AC50 for growth inhibition (log10 M) (SB.mhdgc-1): -4.83
AC50 for growth inhibition (log10 M) (SB.msgc-1): -4.78

NC(=O)Nc1cc(-c2ccc(CN3CCOCC3)cc2)sc1C(N)=O [AZ-TAK1 Inhibitor]
AC50 for growth inhibition (log10 M) (SB.mhdgc-1): -4.68
AC50 for growth inhibition (log10 M) (SB.msgc-1): -4.73

CC[C@H](NC(=O)[C@H](C)NC)C(=O)N1C[C@@H](O)C[C@H]1Cc1c(-c2[nH]c3cc(F)ccc3c2C[C@@H]2C[C@H](O)CN2C(=O)[C@H](CC)NC(=O)[C@H](C)NC)[nH]c2cc(F)ccc12 [Birinapant]
AC50 for growth inhibition (log10 M) (SB.mhdgc-1): -6.23
AC50 for growth inhibition (log10 M) (SB.msgc-1): -5.53

NC1=C(Cl)C(=CC=N1)OC2=C(F)C=C(NC(=O)\C3=C\N\C=C(C3=O)\C4=CC=C(F)C=C4)C=C2
AC50 for growth inhibition (log10 M) (SB.mhdgc-1): -6.43
AC50 for growth inhibition (log10 M) (SB.msgc-1): -4.73

Cc1ccccc1C(=O)c1ccc(Nc2ccc(Br)cc2N)cc1Cl [EO-1428]
AC50 for growth inhibition (log10 M) (SB.mhdgc-1): -4.93
AC50 for growth inhibition (log10 M) (SB.msgc-1): -4.78

CC(C)n1nc(-c2ccc3oc(N)nc3c2)c2c(N)ncnc21 [INK-128]
AC50 for growth inhibition (log10 M) (SB.mhdgc-1): -4.78
AC50 for growth inhibition (log10 M) (SB.msgc-1): -5.48

CN(C)CC(C)(C)CNc1nn2c(-c3ccccc3)nnc2cc1C1CCC1 [Akt-I-1]
AC50 for growth inhibition (log10 M) (SB.mhdgc-1): -6.33
AC50 for growth inhibition (log10 M) (SB.msgc-1): -4.68

CC(C)N[C@@H]1CCn2c(=O)[nH]c3cccc(c32)[C@H]1O [Zilpaterol]
AC50 for growth inhibition (log10 M) (SB.mhdgc-1): -5.33
AC50 for growth inhibition (log10 M) (SB.msgc-1): -5.63

Cc1cnc(Nc2ccc(N3CCN(C)CC3)cc2)nc1Nc1cccc([S+](=O)([O-])NC(C)(C)C)c1
AC50 for growth inhibition (log10 M) (SB.mhdgc-1): -5.33
AC50 for growth inhibition (log10 M) (SB.msgc-1): -4.98

C[C@@]12C(=O)OC(=O)[C@@]1(C)C1CCC2O1 [Cantharidin]
AC50 for growth inhibition (log10 M) (SB.mhdgc-1): -5.28
AC50 for growth inhibition (log10 M) (SB.msgc-1): -5.53

CNC(=O)[C@H](CC/1=C/N=C\2/C=C\C\C=C12)NC(=O)[C@H](CC(C)C)CC(=O)NO [GM-6001]
AC50 for growth inhibition (log10 M) (SB.mhdgc-1): -6.68
AC50 for growth inhibition (log10 M) (SB.msgc-1): -5.58

CN1CCc2c(c3ccccc3n2Cc2ccc(C(=O)NO)cc2)C1 [Tubastatin A]
AC50 for growth inhibition (log10 M) (SB.mhdgc-1): -4.63
AC50 for growth inhibition (log10 M) (SB.msgc-1): -4.68

N#C/C(=C1/Nc2ccccc2S1)c1ccnc(OCc2ccc(CN3CCOCC3)cc2)n1
AC50 for growth inhibition (log10 M) (SB.mhdgc-1): -7.43
AC50 for growth inhibition (log10 M) (SB.msgc-1): -5.98

CCCC1=NC(=C2[N]1NC(=N\C2=O)/C3=CC(=CC=C3OCC)[S+]([O-])(=O)N4CCN(CC)CC4)C [Vardenafil]
AC50 for growth inhibition (log10 M) (SB.mhdgc-1): -4.73
AC50 for growth inhibition (log10 M) (SB.msgc-1): -4.83

CC1=C(CC(=O)O)c2cc(F)ccc2/C1=C\c1ccc([S+](C)[O-])cc1 (centres undefined) [Sulindac]
AC50 for growth inhibition (log10 M) (SB.mhdgc-1): -5.93
AC50 for growth inhibition (log10 M) (SB.msgc-1): -5.53

CN(C)CCCN1c2ccccc2CCc2ccc(Cl)cc21 [Clomipramine hydrochloride]
AC50 for growth inhibition (log10 M) (SB.mhdgc-1): -6.13
AC50 for growth inhibition (log10 M) (SB.msgc-1): -5.93

CCOC(=O)N1CCN(/[N+]([O-])=N/Oc2ccc([N+](=O)[O-])cc2[N+](=O)[O-])CC1
AC50 for growth inhibition (log10 M) (SB.mhdgc-1): -5.23
AC50 for growth inhibition (log10 M) (SB.msgc-1): -4.88

O=C1c2c(O)cc(O)cc2O[C@H](c2cc(O)c(O)c(O)c2)[C@H]1O [Dihydromyricetin]
AC50 for growth inhibition (log10 M) (SB.mhdgc-1): -5.33
AC50 for growth inhibition (log10 M) (SB.msgc-1): -5.23

CC(C)c1onc(-c2c(Cl)cccc2Cl)c1COc1ccc(/C=C/c2cccc(C(=O)O)c2)c(Cl)c1 [GW-4064X]
AC50 for growth inhibition (log10 M) (SB.mhdgc-1): -5.33
AC50 for growth inhibition (log10 M) (SB.msgc-1): -4.73
